Some test systems named below: A549; SW-620; NCI-H226; SNB-19; SF-268; NCI-H460; UACC-257; CAKI-1; SF-539; OVCAR-4; HCT-15; Malme-3M; SNB-75; RPMI-8226; SK-MEL-5; HOP-62; U-251; OVCAR-5; K562; SK-MEL-2.
What all share (assay): NCI-60 cell line screen, 48 h

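Assay format: 96-well plates, 48-hour exposure. GI50 marks 50% less growth.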 Active and inactive are the calls of the source. Rule as the data show it: active = GI50 up to about 1.1 µM and inactive = higher.

With `O=[N+]([O-])c1ccc2[nH]c(-c3ccc(Cl)cc3)nc2c1`, the GI50 with A549 was 20.8 µM (inactive); in the assay on SW-620 it was 32.7 µM (inactive); in the assay on NCI-H226, 22.3 µM (inactive); in the assay with SNB-19, 26 µM (inactive); with SF-268, 19 µM (inactive); in the assay with NCI-H460 it was 19.5 µM (inactive). For the same compound, the GI50 in the assay on UACC-257 was 20.5 µM (inactive); in the assay on CAKI-1, 31.1 µM (inactive); with SF-539, 21.1 µM (inactive); in the assay on OVCAR-4, 32.7 µM (inactive); in the assay on HCT-15, 14.9 µM; in the assay on Malme-3M it was 28.4 µM (inactive). Also, the GI50 in the assay with SNB-75 is 25 µM (inactive); with RPMI-8226 it was 23.2 µM (inactive); in the assay on SK-MEL-5, 16.1 µM (inactive); in the assay with HOP-62, 21.5 µM (inactive).

With `NNc1nnc(-c2nnc(NN)o2)o1`, the GI50 with A549, in the assay on SW-620, in the assay with NCI-H226, in the assay with SNB-19, with SF-268 and in the assay with NCI-H460 was > 10 µM (inactive) each time. In addition, the GI50 in the assay on UACC-257 is > 10 µM (inactive); in the assay with CAKI-1, > 10 µM (inactive); with SF-539, > 10 µM (inactive); in the assay on OVCAR-4, > 10 µM (inactive); with HCT-15 it was more than 10 µM; in the assay on U-251, > 10 µM (inactive). Moreover, the GI50 in the assay on OVCAR-5, in the assay with Malme-3M, in the assay with RPMI-8226, in the assay with SK-MEL-5, in the assay with K562 and in the assay with HOP-62 was > 10 µM (inactive) in each case.

For the compound `COc1nc2c(OC)cccc2c(OC)c1C=O`, the GI50 is > 100 µM (inactive) in the assay on A549; 96.4 µM (inactive) in the assay on SW-620; > 100 µM (inactive) in the assay with NCI-H226; > 100 µM (inactive) with SNB-19; > 100 µM (inactive) with SK-MEL-2; > 100 µM (inactive) with NCI-H460. For the same compound, the GI50 with UACC-257 is > 100 µM (inactive); in the assay on SF-539, > 100 µM (inactive); with HCT-15, more than 100 µM; with U-251, > 100 µM (inactive); in the assay with Malme-3M it was > 100 µM (inactive); in the assay with SNB-75, 30.8 µM (inactive). Further, the GI50 with RPMI-8226 was > 100 µM (inactive); in the assay on SK-MEL-5, > 100 µM (inactive); with K562 it was 53.7 µM (inactive); in the assay on HOP-62, 22.1 µM (inactive).

Take `CC(C)c1ccc(/C=C/c2cc(C(=O)NNC(=O)NC3CCCCC3)nc(S)n2)cc1`: the GI50 in the assay with A549, with SW-620, with NCI-H226, in the assay with SNB-19, with SF-268 and with NCI-H460 was > 100 µM (inactive) each time. The GI50 with UACC-257 was > 100 µM (inactive); in the assay with CAKI-1, > 100 µM (inactive); with SF-539, > 100 µM (inactive); with OVCAR-4, > 100 µM (inactive); in the assay on HCT-15, more than 100 µM; in the assay with U-251, > 100 µM (inactive). Also, the GI50 in the assay on OVCAR-5, in the assay on Malme-3M, with SNB-75, in the assay with RPMI-8226, with SK-MEL-5 and in the assay with HOP-62 was > 100 µM (inactive) in each case.

In the case of `Cc1ccc2c(O)cc(-c3ccc4ccccc4c3)nc2n1`, the GI50 in the assay on A549 was 7.89 µM (inactive); in the assay on SW-620, 2.8 µM (inactive); in the assay on NCI-H226, 5.81 µM (inactive); in the assay with SNB-19, 9.48 µM (inactive); with SF-268, 6.9 µM (inactive); in the assay with SK-MEL-2, 5.97 µM (inactive). For the same compound, the GI50 is 5.58 µM (inactive) in the assay on UACC-257; 4.74 µM (inactive) in the assay on SF-539; 6.25 µM (inactive) with OVCAR-4; 3.54 µM in the assay with HCT-15; 19.3 µM (inactive) in the assay on OVCAR-5; 4.46 µM (inactive) with Malme-3M. The GI50 in the assay on SNB-75 was 2.75 µM (inactive); with RPMI-8226, 4.48 µM (inactive); in the assay on K562 it was 3.41 µM (inactive); in the assay on HOP-62 it was 7.13 µM (inactive).
